Values quoted from earlier work as cited in publication PMC10655862 (Methods in enzymology, 2023).
Read-outs that look alike come from different tables or passages of the source.

Columns and labels:
AKR1D1 = details: 5β-reduction, fluorometric, pH 6.0, 37 °C; ref Chen et al., (2011)
AKR1D1 (5β-reductase) = details: ref Chen et al., (2011); for Type of inhibition (5β-reductase): inhibition of testosterone reduction; for inhibition of AKR1D1, in words: reduction of [4-14C]-testosterone
AKR1C3 = details: AKR1C3, competitive inhibition (C); ref Bauman et al. (2005)
AKR1C1 = details: AKR1C1, competitive inhibition (C); ref Bauman et al. (2005)
AKR1C2 = details: AKR1C2, competitive inhibition (C); ref Bauman et al. (2005)
[1] = target: 5α-reductase type 2 (SRD5A2); details: ref Bull et al. (1996)
aldose reductase AKR1B1 = details: NADPH binding to AKR1B1, literature comparison; ref not given

Row | Compound | Km (AKR1D1) [µM] | inhibition of AKR1D1, in words (AKR1D1 (5β-reductase)) | further results
1 | C[C@]12CC[C@H]3[C@@H](CCC4=CC(=O)C=C[C@@]43C)[C@@H]1CC[C@@H]2O [1,4-Androstadien-17β-ol-3-one] | 3.2 ± 0.2 |  | 
2 | O=C(O)c1ccc(C(=O)c2ccccc2)cc1 [4-Benzoylbenzoic acid] |  | ineffective | Type of inhibition (5β-reductase) (AKR1D1 (5β-reductase)): n.i.; Ki (AKR1C3): 1900 nM; Ki (AKR1C1): 12500 nM; Ki (AKR1C2): 13300 nM
3 | CC(C)CCC[C@@H](C)[C@H]1CC[C@H]2[C@@H]3[C@H](O)CC4=CC(=O)CC[C@]4(C)[C@H]3CC[C@]12C [4-Cholesten-7α-ol-3-one] | 0.8 ± 0.2 |  | 
4 | C[C@]12CC[C@H]3[C@@H](CCC4=CC(=O)CC[C@@H]43)[C@@H]1CC[C@@H]2O [4-Estren-l7β-ol-3-one] | 3 ± 0.5 |  | 
5 | C[C@H](CCC(=O)O)[C@H]1CC[C@H]2[C@@H]3[C@H](O)C[C@@H]4C[C@H](O)CC[C@]4(C)[C@H]3CC[C@]12C [Chenodeoxycholic acid] |  | weak non-competitive inhibitors | Ki (AKR1C3): 10000 nM; Ki (AKR1C1): 8300 nM; Ki (AKR1C2): 17 nM
6 | CC(C)CCC[C@@H](C)[C@H]1CC[C@H]2[C@@H]3CCC4=CC(=O)CC[C@]4(C)[C@H]3CC[C@]12C [Cholestenone] | 0.3 ± 0.1 |  | 
7 | C[C@]12C[C@H](O)[C@H]3[C@@H](CCC4=CC(=O)CC[C@@]43C)[C@@H]1CC[C@@H]2C(=O)CO [Corticosterone] | 2.2 ± 0.5 |  | 
8 | C[C@]12CCC(=O)C=C1CC[C@@H]1[C@@H]2[C@@H](O)C[C@@]2(C)[C@H]1CC[C@]2(O)C(=O)CO [Cortisol] | 13.1 ± 1.8 |  | 
9 | C[C@]12CCC(=O)C=C1CC[C@@H]1[C@@H]2C(=O)C[C@@]2(C)[C@H]1CC[C@]2(O)C(=O)CO [Cortisone] | 15.1 ± 0.3 |  | 
10 | C[C@]12CC[C@H]3[C@@H](CCC4=CC(=O)CC[C@@]43C)[C@@H]1CC[C@H]2O [Epitestosterone] | 2.9 ± 0.6 |  | 
11 | CC(C)(C)NC(=O)[C@H]1CC[C@H]2[C@@H]3CC[C@H]4NC(=O)C=C[C@]4(C)[C@H]3CC[C@]12C [Finasteride] |  | competitive inhibitor | Ki ([1]; competitive inhibition (C)): 26 nM; Ki ([1]; mechanism-based inhibition (MBI)): < 1 nM
12 | COc1ccc2c(c1)c(CC(=O)O)c(C)n2C(=O)c1ccc(Cl)cc1 [Indomethacin] |  | ineffective | Type of inhibition (5β-reductase) (AKR1D1 (5β-reductase)): n.i.
13 | Cc1cccc(Nc2ccccc2C(=O)O)c1C [Mefenamic acid] |  | ineffective | Type of inhibition (5β-reductase) (AKR1D1 (5β-reductase)): n.i.; Ki (AKR1C1): 800 nM
14 | NC(=O)C1=CN([C@@H]2O[C@H](COP(=O)(O)OP(=O)(O)OC[C@H]3O[C@@H](n4cnc5c(N)ncnc54)[C@H](OP(=O)(O)O)[C@@H]3O)[C@@H](O)[C@H]2O)C=CC1 [NADPH] |  |  | Kd (aldose reductase AKR1B1): 9 nM
15 | C[C@]12CC[C@H]3[C@@H](CCC4=CC(=O)CC[C@@]43C)[C@@H]1CC[C@@H]2O [Testosterone] | 2.7 ± 1.2 |  | 
16 | C[C@H](CCC(=O)O)[C@H]1CC[C@H]2[C@@H]3[C@@H](O)C[C@@H]4C[C@H](O)CC[C@]4(C)[C@H]3CC[C@]12C [Ursodeoxycholic acid] |  | weak non-competitive inhibitors | Ki (AKR1C3): 1300 nM; Ki (AKR1C1): 4900 nM; Ki (AKR1C2): 11 nM
17 | C[C@]12CCC(=O)C=C1CC[C@@H]1[C@@H]2CC[C@]2(C)C(=O)CC[C@@H]12 [Δ^4-Androstene-3,17-dione] | 0.9 ± 0.2 |  | 
